Measured values published in article PMC11881559 (Antimicrobial Agents and Chemotherapy, 2025).

Key:
CYP3A = conditions: in vitro CYP reaction phenotyping, preclinical; cited from earlier work
[1] = rats; preclinical animal studies; cited from earlier work
[2] = 12-lead ECG QTcF assessment and C-QT model; type: in vivo, human
Experimental: To evaluate the cardiotoxicity of the drug, 12-lead ECG was conducted at several time points: 0 h, 1 h, 2 h, 4 h, 24 h, 48 h, 72 h, and 96 h after dosing in the SAD, food-effect, and DDI studies. In the MAD study, 12-lead ECG data were collected on day 1 (0 h, 1 h, 2 h, 4 h, and 8 h after dosing) and on day 5 (0 h, 1 h, 2 h, 4 h, 24 h, 48 h, 72 h, and 96 h after dosing), as well as before dosing and 2 h after dosing on days 2–4. Three consecutive ECGs were performed at each of these time points. The QT interval was corrected using the Fridericia formula [QTcF = QT / (RR^0.33), where RR = 60/heart rate]. Descriptive statistics were applied to the number of participants with abnormal changes in QTcF after dosing compared to baseline, including: (i) absolute value of QTcF >450 ms; (ii) absolute value of QTcF >500 ms; (iii) 30 ms < ΔQTcF ≤ 60 ms; (iv) ΔQTcF >60 ms (ΔQTcF = QTcF after dosing − baseline).

Omicron = conditions: in vitro, corrected by the plasma protein binding rate; cited from earlier work
[3] = Drug-drug interaction (DDI) study with ritonavir, plasma PK; conditions: 200 mg in combination with ritonavir vs 200 mg alone

Structure (SMILES): O=C(NC1CCCC1)C(=O)[C@H](C[C@@H]1CCNC1=O)NC(=O)[C@@H]1[C@H]2CCC[C@H]2CN1C(=O)[C@@H](NC(=O)C(F)(F)F)C1CCCCC1 [RAY1216, leritrelvir]
- primary metabolizing enzyme (CYP3A): CYP3A is the primary metabolizing enzyme
- no-observed-adverse-effect level (NOAEL) [1]: 900 mg/kg/day
- participants with absolute value of QTcF exceeding 450 ms ([2]; 700 mg combined with ritonavir BID group): one
- mean ΔΔQTcF ([2]; 700 mg combined with ritonavir BID, at average Cmax 9280 ng/mL, C-QT model, 90% CI: −1.6526–7.0164): 2.6819 ms
- correlation between drug concentration and the QT interval ([2]; C-QT model analysis): no significant correlation
- participants exceeding a ΔQTcF of 60 ms ([2]; all cohorts): no participants
- upper limit of the 90% CI for the average ΔΔQTcF ([2]; at the average Cmax concentration in each cohort, C-QT model predicted): less than 10 ms
- antiviral 90% effective concentration (EC90) (Omicron): 0.2097 µg/mL
- mean AUC0-t increased to [3]: 350.07%
- mean AUC0-∞ increased to [3]: 171.00%
- mean C12h concentration increased by [3]: 417.3 ng/mL
- mean Cmax increased to [3]: 348.03%
